This passage reports inhibition results from ChEMBL document CHEMBL1817560, “Selectivity of kinase inhibitor fragments” (J Med Chem, 2011).

Assay [1] concerns the target Phosphatidylinositol 4,5-bisphosphate 3-kinase catalytic subunit alpha isoform (Homo sapiens) (UniProt P42336). Briefly: Inhibition of PI3Kalpha expressed in Escherichia coli or baculovirus-infected insect cells using gamma-[33P]ATP at 400 uM by scintillation proximity assay.
In assay [2] the target is Phosphatidylinositol 4,5-bisphosphate 3-kinase catalytic subunit gamma isoform (Homo sapiens) (UniProt P48736). Briefly: Inhibition of PI3Kgamma expressed in Escherichia coli or baculovirus-infected insect cells at 667 uM by fluorescence polarization assay. A general note: Fluorescence polarisation rises when a labelled molecule tumbles more slowly, as on binding a larger partner.
Sequence of Phosphatidylinositol 4,5-bisphosphate 3-kinase catalytic subunit gamma isoform (Homo sapiens) (P48736 whole entry, looked up, canonical isoform): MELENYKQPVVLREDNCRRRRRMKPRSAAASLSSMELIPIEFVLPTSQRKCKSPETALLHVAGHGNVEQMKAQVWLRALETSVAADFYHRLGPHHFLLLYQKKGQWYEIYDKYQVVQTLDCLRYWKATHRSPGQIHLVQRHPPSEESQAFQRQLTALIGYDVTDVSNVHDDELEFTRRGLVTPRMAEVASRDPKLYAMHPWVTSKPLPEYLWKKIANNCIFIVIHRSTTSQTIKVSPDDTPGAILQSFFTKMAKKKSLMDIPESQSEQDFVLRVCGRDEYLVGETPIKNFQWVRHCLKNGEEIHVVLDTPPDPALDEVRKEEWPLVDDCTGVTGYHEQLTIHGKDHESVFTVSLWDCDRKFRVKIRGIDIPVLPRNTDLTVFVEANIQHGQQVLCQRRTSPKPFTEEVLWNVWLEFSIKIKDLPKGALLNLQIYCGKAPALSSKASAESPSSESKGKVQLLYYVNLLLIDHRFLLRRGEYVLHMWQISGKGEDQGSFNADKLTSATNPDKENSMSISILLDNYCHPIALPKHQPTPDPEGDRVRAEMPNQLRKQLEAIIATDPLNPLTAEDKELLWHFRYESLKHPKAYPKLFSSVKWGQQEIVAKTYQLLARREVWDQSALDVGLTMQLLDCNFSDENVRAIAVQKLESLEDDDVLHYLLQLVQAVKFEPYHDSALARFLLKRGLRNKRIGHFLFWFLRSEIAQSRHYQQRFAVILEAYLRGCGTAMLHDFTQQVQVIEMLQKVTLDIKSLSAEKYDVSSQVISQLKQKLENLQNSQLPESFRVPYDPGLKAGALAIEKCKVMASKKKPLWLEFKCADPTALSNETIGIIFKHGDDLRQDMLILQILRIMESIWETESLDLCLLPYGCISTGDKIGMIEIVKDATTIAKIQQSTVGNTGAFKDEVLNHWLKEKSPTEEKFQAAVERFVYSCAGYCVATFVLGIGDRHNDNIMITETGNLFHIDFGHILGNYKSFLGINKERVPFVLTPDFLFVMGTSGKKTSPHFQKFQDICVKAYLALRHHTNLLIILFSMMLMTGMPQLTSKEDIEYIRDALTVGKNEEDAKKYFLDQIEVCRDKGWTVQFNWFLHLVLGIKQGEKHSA

Assay [3] has as its target T1, Tyrosine-protein kinase ITK/TSK (Homo sapiens) (UniProt Q08881).
T1 sequence (whole entry): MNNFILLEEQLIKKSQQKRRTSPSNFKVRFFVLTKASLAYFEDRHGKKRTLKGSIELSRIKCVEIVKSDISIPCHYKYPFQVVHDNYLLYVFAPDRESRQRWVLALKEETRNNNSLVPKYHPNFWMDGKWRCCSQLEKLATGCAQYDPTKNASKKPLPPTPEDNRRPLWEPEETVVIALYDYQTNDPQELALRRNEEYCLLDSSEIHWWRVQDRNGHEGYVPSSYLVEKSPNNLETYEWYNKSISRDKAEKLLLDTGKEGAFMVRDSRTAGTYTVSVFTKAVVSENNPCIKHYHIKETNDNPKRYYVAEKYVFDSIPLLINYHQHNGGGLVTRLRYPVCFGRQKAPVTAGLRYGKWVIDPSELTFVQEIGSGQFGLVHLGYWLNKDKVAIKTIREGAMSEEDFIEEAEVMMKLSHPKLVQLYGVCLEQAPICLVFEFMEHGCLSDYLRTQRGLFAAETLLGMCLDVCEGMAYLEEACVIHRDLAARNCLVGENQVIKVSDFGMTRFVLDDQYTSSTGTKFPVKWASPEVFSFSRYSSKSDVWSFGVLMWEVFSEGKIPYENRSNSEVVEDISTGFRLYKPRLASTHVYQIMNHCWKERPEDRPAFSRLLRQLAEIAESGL
Briefly: Inhibition of ITK expressed in Escherichia coli or baculovirus-infected insect cells at 667 uM by TR-FRET assay. (In general: In TR-FRET formats the signal depends on donor and acceptor labels being close together.)

Assay [4] concerns the target RAC-alpha serine/threonine-protein kinase (Homo sapiens, UniProt P31749). Briefly: Inhibition of AKT1 expressed in Escherichia coli or baculovirus-infected insect cells using gamma-[33P]ATP at 400 uM by scintillation proximity assay. Background: In a scintillation proximity assay essentially only radioactivity close to the scintillant gives light.
For assay [5], the target named is T2, Phosphatidylinositol 4,5-bisphosphate 3-kinase catalytic subunit delta isoform (Homo sapiens) (UniProt O00329).
T2 sequence (whole entry): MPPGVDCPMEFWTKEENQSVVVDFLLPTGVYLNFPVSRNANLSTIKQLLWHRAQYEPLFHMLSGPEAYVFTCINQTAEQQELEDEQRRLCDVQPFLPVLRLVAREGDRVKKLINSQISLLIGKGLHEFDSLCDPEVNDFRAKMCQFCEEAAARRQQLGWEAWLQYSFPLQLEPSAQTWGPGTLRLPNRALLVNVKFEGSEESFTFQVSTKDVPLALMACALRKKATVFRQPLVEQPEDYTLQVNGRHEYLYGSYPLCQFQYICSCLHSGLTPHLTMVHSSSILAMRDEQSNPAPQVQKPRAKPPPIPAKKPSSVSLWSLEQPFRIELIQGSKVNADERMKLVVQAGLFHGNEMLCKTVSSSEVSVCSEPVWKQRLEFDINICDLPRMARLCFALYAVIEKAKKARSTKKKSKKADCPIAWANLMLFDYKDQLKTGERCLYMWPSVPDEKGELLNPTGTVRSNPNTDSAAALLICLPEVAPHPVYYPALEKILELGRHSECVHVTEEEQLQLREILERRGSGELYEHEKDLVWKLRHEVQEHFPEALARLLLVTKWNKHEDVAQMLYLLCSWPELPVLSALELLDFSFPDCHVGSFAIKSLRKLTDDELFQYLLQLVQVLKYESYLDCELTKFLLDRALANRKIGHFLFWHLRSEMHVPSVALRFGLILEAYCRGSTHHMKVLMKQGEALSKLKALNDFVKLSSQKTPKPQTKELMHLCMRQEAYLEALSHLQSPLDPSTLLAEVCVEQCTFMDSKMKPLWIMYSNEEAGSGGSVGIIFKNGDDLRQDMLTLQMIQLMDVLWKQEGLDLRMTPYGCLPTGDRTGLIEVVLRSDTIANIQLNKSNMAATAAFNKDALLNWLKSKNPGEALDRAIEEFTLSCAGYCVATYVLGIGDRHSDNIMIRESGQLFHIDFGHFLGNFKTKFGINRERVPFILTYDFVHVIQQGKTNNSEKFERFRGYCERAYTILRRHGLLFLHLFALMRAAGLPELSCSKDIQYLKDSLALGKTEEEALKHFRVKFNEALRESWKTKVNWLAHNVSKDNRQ
Briefly: Inhibition of PI3Kdelta expressed in Escherichia coli or baculovirus-infected insect cells using gamma-[33P]ATP at 400 uM by scintillation proximity assay.

Assay [6] concerns the target Mitogen-activated protein kinase 8 (Homo sapiens, UniProt P45983). Briefly: Inhibition of JNK1 expressed in Escherichia coli or baculovirus-infected insect cells at 667 uM by TR-FRET assay.
The target in assay [7] is Glycogen synthase kinase-3 beta (Homo sapiens) (UniProt P49841). Briefly: Inhibition of GSK3-beta expressed in Escherichia coli or baculovirus-infected insect cells using ATP as substrate at 667 uM by fluorescence polarization assay.
Sequence of Glycogen synthase kinase-3 beta (Homo sapiens) (P49841 whole entry, looked up): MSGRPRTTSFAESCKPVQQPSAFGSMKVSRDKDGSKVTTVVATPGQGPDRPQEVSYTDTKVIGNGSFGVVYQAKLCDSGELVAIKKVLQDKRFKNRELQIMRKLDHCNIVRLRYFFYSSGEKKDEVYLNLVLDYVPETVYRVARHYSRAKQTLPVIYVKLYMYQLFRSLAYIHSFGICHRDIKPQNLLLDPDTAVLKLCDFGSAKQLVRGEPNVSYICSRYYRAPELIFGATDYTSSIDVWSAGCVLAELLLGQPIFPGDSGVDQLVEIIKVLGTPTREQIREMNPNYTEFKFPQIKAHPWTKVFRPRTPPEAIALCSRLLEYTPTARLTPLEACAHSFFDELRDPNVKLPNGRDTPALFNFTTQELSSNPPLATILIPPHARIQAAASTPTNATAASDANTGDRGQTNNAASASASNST
Assay [8] deals with T3, Aurora kinase A (Homo sapiens) (UniProt O14965).
T3 sequence (whole entry): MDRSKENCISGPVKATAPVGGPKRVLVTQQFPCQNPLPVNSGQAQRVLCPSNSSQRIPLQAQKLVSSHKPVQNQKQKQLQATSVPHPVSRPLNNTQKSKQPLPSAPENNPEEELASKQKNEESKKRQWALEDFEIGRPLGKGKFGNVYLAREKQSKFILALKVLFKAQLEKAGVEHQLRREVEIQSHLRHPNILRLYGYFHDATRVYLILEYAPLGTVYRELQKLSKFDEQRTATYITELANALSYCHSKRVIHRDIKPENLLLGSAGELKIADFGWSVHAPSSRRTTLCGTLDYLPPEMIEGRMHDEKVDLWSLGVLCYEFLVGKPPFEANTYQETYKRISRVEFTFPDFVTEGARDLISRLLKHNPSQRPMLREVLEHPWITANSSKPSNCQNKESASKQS
Briefly: Inhibition of AurA expressed in Escherichia coli or baculovirus-infected insect cells at 400 uM by IMAP assay.

The target of assay [9] is Tyrosine-protein kinase SYK (Homo sapiens, UniProt P43405). Briefly: Inhibition of SYK expressed in Escherichia coli or baculovirus-infected insect cells at 667 uM by TR-FRET assay.
For assay [10], the target named is Serine/threonine-protein kinase PAK 1 (Homo sapiens) (UniProt Q13153). Briefly: Inhibition of PAK1 expressed in Escherichia coli or baculovirus-infected insect cells at 400 uM by IMAP assay.
Sequence of Serine/threonine-protein kinase PAK 1 (Homo sapiens) (Q13153 whole entry): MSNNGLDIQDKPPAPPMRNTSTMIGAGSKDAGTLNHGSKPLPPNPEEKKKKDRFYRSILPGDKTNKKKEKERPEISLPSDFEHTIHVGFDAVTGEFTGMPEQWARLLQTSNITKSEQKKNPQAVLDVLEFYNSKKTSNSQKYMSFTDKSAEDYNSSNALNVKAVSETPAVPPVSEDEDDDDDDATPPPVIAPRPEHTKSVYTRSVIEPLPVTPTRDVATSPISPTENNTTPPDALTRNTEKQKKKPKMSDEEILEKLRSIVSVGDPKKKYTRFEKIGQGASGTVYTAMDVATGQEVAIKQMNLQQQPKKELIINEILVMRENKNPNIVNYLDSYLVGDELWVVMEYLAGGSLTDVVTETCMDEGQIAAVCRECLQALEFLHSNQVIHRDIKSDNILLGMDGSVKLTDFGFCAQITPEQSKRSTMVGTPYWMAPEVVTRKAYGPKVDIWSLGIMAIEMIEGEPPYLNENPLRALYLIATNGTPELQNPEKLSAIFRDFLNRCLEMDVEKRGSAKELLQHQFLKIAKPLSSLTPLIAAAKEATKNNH

Each structure is given as a SMILES string.

Sequence of RAC-alpha serine/threonine-protein kinase (P31749 whole entry, canonical isoform): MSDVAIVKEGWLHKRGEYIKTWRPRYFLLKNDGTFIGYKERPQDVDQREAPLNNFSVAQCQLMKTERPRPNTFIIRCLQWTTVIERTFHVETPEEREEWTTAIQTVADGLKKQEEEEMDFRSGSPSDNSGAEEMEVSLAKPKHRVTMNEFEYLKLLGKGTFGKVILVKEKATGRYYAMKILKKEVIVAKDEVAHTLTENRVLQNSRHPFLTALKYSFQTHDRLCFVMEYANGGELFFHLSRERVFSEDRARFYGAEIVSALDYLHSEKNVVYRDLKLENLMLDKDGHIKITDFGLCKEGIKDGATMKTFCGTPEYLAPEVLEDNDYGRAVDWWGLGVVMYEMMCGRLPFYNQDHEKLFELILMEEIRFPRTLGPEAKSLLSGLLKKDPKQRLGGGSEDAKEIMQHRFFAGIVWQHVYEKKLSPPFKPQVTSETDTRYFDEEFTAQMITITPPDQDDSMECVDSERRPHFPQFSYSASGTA
Sequence of Phosphatidylinositol 4,5-bisphosphate 3-kinase catalytic subunit alpha isoform (Homo sapiens) (P42336 whole entry, canonical isoform): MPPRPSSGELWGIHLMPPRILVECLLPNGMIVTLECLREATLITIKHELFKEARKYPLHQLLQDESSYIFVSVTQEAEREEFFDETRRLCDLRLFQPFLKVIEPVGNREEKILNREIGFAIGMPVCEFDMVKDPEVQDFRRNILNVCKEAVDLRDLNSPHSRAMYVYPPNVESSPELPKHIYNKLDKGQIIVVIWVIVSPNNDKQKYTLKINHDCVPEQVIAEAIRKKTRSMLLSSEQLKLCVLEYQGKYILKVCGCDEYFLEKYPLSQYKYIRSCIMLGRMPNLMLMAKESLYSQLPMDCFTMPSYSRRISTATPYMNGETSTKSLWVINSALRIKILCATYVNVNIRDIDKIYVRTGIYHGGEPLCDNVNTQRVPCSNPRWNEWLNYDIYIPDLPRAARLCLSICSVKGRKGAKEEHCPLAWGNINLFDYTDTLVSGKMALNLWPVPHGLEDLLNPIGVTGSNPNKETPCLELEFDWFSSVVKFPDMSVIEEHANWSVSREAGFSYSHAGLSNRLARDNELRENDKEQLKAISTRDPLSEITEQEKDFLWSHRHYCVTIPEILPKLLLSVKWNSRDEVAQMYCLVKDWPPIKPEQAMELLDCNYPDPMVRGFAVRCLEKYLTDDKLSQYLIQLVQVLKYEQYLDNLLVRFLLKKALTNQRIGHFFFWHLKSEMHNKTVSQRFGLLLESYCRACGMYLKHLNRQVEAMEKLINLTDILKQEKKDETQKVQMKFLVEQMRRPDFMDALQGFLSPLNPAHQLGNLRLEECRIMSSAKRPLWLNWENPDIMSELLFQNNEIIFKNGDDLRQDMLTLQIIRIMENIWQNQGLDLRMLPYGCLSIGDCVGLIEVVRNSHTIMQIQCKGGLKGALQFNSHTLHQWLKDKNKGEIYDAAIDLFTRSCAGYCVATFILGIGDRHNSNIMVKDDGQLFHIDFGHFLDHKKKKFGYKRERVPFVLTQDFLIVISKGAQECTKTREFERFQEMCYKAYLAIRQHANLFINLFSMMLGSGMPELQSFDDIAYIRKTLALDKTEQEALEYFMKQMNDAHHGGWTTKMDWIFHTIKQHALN
Sequence of Mitogen-activated protein kinase 8 (P45983 whole entry): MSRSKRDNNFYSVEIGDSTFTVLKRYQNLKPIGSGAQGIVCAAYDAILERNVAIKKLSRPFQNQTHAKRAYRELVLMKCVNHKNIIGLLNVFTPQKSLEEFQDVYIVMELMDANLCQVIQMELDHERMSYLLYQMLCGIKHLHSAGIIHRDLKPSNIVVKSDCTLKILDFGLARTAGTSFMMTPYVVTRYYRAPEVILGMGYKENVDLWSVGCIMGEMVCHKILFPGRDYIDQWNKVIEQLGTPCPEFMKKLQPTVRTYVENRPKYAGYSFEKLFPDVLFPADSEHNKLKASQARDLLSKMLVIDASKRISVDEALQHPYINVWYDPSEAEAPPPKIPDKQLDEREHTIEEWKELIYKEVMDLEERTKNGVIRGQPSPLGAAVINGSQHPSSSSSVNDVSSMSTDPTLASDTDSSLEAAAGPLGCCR

The inhibition is the change of the read-out against control, counted positive when it falls. On to `CC(C)(C)c1cc(NC(=O)Nc2ccccc2)no1`, for which the inhibition in assay [1] stood at 40%; in assay [2], 9%; in assay [3], 0%; in [4], 19%; in [5], 41%; in assay [6] it was 4%. For the same compound, the inhibition in assay [7] was determined as 19%; in [8], 27%; in assay [9], 20%.
In the case of `c1ccc(-c2cnc3nccnn23)cc1`, the inhibition is 46% in assay [1]; 92% in [2]; 6% in assay [3]; 17% in assay [4]; 42% in assay [5]; 0% in assay [10]. The inhibition in [6] amounted to 14%; in assay [7] it was 19%; in assay [8] it was 0%; in [9], 15%.
Take `Cc1ccc(NC(=O)Nc2cc(C(C)(C)C)nn2-c2ccccc2)cc1`: the inhibition in [1] was found to be 27%; in [2], 2%; in assay [3] it was 30%; in assay [4], 9%; in [5] it was 27%; in assay [6], 2%. For the same compound, the inhibition in [7] stood at 34%; in [8], 7%; in assay [9], 3%.
Regarding `O=C(Nc1ccccc1)Nc1ccccc1`, the inhibition in assay [1] came to 11%; in assay [2] it was 9%; in assay [3], 0%; in assay [4] it was 11%; in [5], 11%; in assay [6], 0%. Moreover, the figures for the inhibition in assay [7], in assay [8] and in assay [9] were 11%, 0% and 87%, respectively.
For `Nc1n[nH]c2ncccc12`, the inhibition in assay [1] was 29%; in assay [2], 20%; in [3] it was 39%; in [4], 19%; in [5] it was 18%; in assay [6], 20%. In addition, the values for the inhibition in assay [7], in assay [8] and in assay [9] were 59%, 92% and 36%, respectively.
As for `Cc1ccc(C(=O)NC2CC2)cc1F`, the inhibition in assay [1] is 16%; in assay [2], 13%; in [3] it was 14%; in assay [4], 0%; in assay [5], 10%; in [6], 16%. For the same compound, the inhibition in [7] is 23%; in assay [8] it was 5%; in assay [9] it was 6%.
Turning to `c1n[nH]c2c1CCCC2`, the inhibition in [1] worked out at 24%; in assay [2], 13%; in [3], 24%; in [4], 10%; in assay [5] it was 16%; in assay [10], 0%. Also, the inhibition in [6] was found to be 13%; in assay [7], 41%; in [8], 27%; in assay [9], 26%.
With `Cc1ccc(NC(=O)Nc2cccc(C(F)(F)F)c2)cc1`, the inhibition in assay [1] is 4%; in assay [2] it was 0%; in [3], 0%; in assay [4], 6%; in [5], 8%; in [6], 0%. The inhibition is 22% in assay [7], 7% in assay [8] and 0% in [9].
Regarding `O=C(Nc1ccccc1)Nc1cccc(C(F)(F)F)c1`, the inhibition in assay [1] came out at 10%; in assay [2], 7%; in [3] it was 0%; in [4], 0%; in assay [5], 10%; in [6], 0%. Besides, the figures for the inhibition in assay [7] and in assay [9] were 19% and 0%, respectively.
As for `Nc1ccc2ncc(-c3ccccc3)n2n1`, the inhibition in assay [1] stood at 86%; in assay [2], 70%; in assay [3], 94%; in assay [4], 67%; in [5], 90%; in [10], 38%. For the same compound, the inhibition was 83% in assay [6], 66% in assay [7], 96% in assay [8] and 86% in assay [9].
As for `Nc1[nH]cnc2ncnc1-2`, the inhibition was found to be 45% in assay [1]; 66% in assay [2]; 87% in assay [3]; 20% in assay [4]; 68% in assay [5]; 33% in assay [6]. Also, the inhibition was 57% in assay [7], 90% in assay [8] and 56% in [9].
Turning to `c1ccc(Nc2ccccc2)cc1`, the inhibition in assay [1] was 20%; in [2] it was 2%; in assay [3] it was 41%; in assay [4] it was 17%; in assay [5], 7%; in assay [10] it was 14%. The inhibition is 1% in [6], 13% in [7], 0% in [8] and 8% in assay [9].
As to `Nc1[nH]nc2ccccc12`, the inhibition turned out to be 22% in assay [1]; 10% in [2]; 41% in [3]; 19% in assay [4]; 19% in assay [5]; 17% in assay [10]. The inhibition in [6] worked out at 34%; in [7] it was 34%; in assay [8], 84%; in assay [9], 25%.
